Activity calls are given as the source filed them. No cut-off for these calls is given here.
What was measured:
CAL-27 [1] = assay: Cytotoxicity against human CAL-27 cells assessed as reduction in cell viability incubated for 24 hrs by alamar blue assay; format: functional, cell-based; conditions: CAL-27, 24 h
[2] = Cytotoxicity against human normal oral epithelial cell assessed as reduction in cell viability incubated for 24 hrs by alamar blue assay; format: toxicity, cell-based; conditions: normal oral epithelial cells
[3] = Induction of cell cycle arrest in human normal oral epithelial cell assessed as reduction in cells at S phase at IC50 concentration incubated for 24 hrs by propidium iodide staining based flow cytometric analysis (reference value: 31.85 %); format: toxicity; design: scale not given: the % may be the effect or the level left
CAL-27 [4] = assay: Upregulation of p53 pathway in human CAL-27 cells at IC50 concentration incubated for 24 hrs by RNA sequencing analysis; format: functional, cell-based
[5] = Induction of cell cycle arrest in human normal oral epithelial cell assessed as accumulation at G1 phase at IC50 concentration incubated for 24 hrs by propidium iodide staining based flow cytometric analysis (reference value: 55.49 %); format: toxicity
CAL-27 [6] = assay: Upregulation of hypoxia related gene in human CAL-27 cells at IC50 concentration incubated for 24 hrs by RNA sequencing analysis; format: functional, cell-based
CAL-27 [7] = assay: Cytotoxicity against human CAL-27 cells assessed as reduction in cell viability incubated for 72 hrs by alamar blue assay; format: functional, cell-based; conditions: CAL-27, 72 h
CAL-27 [8] = assay: Downregulation of KRAS signaling gene in human CAL-27 cells at IC50 concentration incubated for 24 hrs by RNA sequencing analysis; format: functional, cell-based
CAL-27 [9] = assay: Cytotoxicity against human CAL-27 cells assessed as reduction in cell viability incubated for 48 hrs by alamar blue assay; format: functional, cell-based; conditions: CAL-27, 48 h
CAL-27 [10] = assay: Antimigratory activity against human CAL-27 cells assessed as reduction in gap closure at 14 uM after 24 hrs by scratch wound healing assay (reference value: 65.2%); format: functional; design: scale not given: the % may be the effect or the level left
CAL-27 [11] = assay: Upregulation of epithelial mesenchymal gene in human CAL-27 cells at IC50 concentration incubated for 24 hrs by RNA sequencing analysis; format: functional, cell-based
CAL-27 [12] = assay: Downregulation of MYC gene in human CAL-27 cells at IC50 concentration incubated for 24 hrs by RNA sequencing analysis; format: functional, cell-based
CAL-27 [13] = assay: Induction of cell cycle arrest in human CAL-27 cells assessed as accumulation at G2/M phase at IC50 concentration incubated for 24 hrs by propidium iodide staining based flow cytometric analysis (reference value: […]); format: functional
CAL-27 [14] = assay: Upregulation of IL2 STAT5 signaling gene in human CAL-27 cells at IC50 concentration incubated for 24 hrs by RNA sequencing analysis; format: functional, cell-based
CAL-27 [15] = assay: Downregulation of G2M checkpoint gene in human CAL-27 cells at IC50 concentration incubated for 24 hrs by RNA sequencing analysis; format: functional, cell-based
CAL-27 [16] = assay: Upregulation of myogenesis gene in human CAL-27 cells at IC50 concentration incubated for 24 hrs by RNA sequencing analysis; format: functional, cell-based
CAL-27 [17] = assay: Upregulation of glycolysis gene in human CAL-27 cells at IC50 concentration incubated for 24 hrs by RNA sequencing analysis; format: functional, cell-based
CAL-27 [18] = assay: Upregulation of KRAS signaling gene in human CAL-27 cells at IC50 concentration incubated for 24 hrs by RNA sequencing analysis; format: functional, cell-based
CAL-27 [19] = assay: Upregulation of MTORC1 signaling gene in human CAL-27 cells at IC50 concentration incubated for 24 hrs by RNA sequencing analysis; format: functional, cell-based
CAL-27 [20] = assay: Downregulation of MTORC1 signaling gene in human CAL-27 cells at IC50 concentration incubated for 24 hrs by RNA sequencing analysis; format: functional, cell-based
CAL-27 [21] = assay: Downregulation of mitotic spindle in human CAL-27 cells at IC50 concentration incubated for 24 hrs by RNA sequencing analysis; format: functional, cell-based
CAL-27 [22] = assay: Downregulation of estrogen response gene in human CAL-27 cells at IC50 concentration incubated for 24 hrs by RNA sequencing analysis; format: functional, cell-based
CAL-27 [23] = assay: Induction of cell cycle arrest in human CAL-27 cells assessed as decrease in cells at S phase at IC50 concentration incubated for 24 hrs by propidium iodide staining based flow cytometric analysis (reference value: 23.97 %); format: functional; design: scale not given: the % may be the effect or the level left
CAL-27 [24] = assay: Induction of cell cycle arrest in human CAL-27 cells assessed as accumulation at G1 phase at IC50 concentration incubated for 24 hrs by propidium iodide staining based flow cytometric analysis (reference value: 61.61 %); format: functional
CAL-27 [25] = assay: Antimigratory activity against human CAL-27 cells at 14 uM after 24 hrs by scratch wound healing assay; format: functional
CAL-27 [26] = assay: Downregulation of E2F gene in human CAL-27 cells at IC50 concentration incubated for 24 hrs by RNA sequencing analysis; format: functional, cell-based
CAL-27 [27] = assay: Antimigratory activity against human CAL-27 cells assessed as reduction in number of colonies at 14 uM replaced with fresh medium for every 2 days for 10 days by crystal violet staining based inverted microscopic analysis (reference value: 234); format: functional; conditions: time 10 day
[28] = Induction of cell cycle arrest in human normal oral epithelial cell assessed as accumulation at G2/M phase at IC50 concentration incubated for 24 hrs by propidium iodide staining based flow cytometric analysis (reference value: 12.79 %); format: toxicity
CAL-27 [29] = assay: Upregulation of apoptosis gene in human CAL-27 cells at IC50 concentration incubated for 24 hrs by RNA sequencing analysis; format: functional, cell-based
CAL-27 [30] = assay: Upregulation of TNF-alpha signaling NF-kappaB gene in human CAL-27 cells at IC50 concentration incubated for 24 hrs by RNA sequencing analysis; format: functional, cell-based
CAL-27 [31] = assay: Downregulation of interferon gamma gene in human CAL-27 cells at IC50 concentration incubated for 24 hrs by RNA sequencing analysis; format: functional, cell-based

## Cc1ccc(/C=C/c2nc(O)c3ccccc3n2)cc1
CAL-27 [1]
  IC50: 14.6 µM
[2]
  IC50 at 24 h: 14 µM

## O=c1[nH]c(/C=C/c2ccc([N+](=O)[O-])cc2)nc2ccccc12
CAL-27 [1]
  IC50: 16 µM
[2]
  IC50 at 24 h: 12 µM

## O=c1[nH]c(/C=C/c2ccc(F)cc2)nc2ccccc12
[3]
  Activity: 30.19%
CAL-27 [1]
  IC50: 12.9 µM
CAL-27 [4]
  Activity: Active
[5]
  Activity: 55.99%
CAL-27 [6]
  Activity: Active
CAL-27 [7]
  IC50: 8 µM
CAL-27 [8]
  Activity: Active
CAL-27 [9]
  IC50: 10 µM
CAL-27 [10]
  Activity: 36%
CAL-27 [11]
  Activity: Active
CAL-27 [12]
  Activity: Active
CAL-27 [13]
  Activity: 14.24%
CAL-27 [14]
  Activity: Active
CAL-27 [15]
  Activity: Active
CAL-27 [16]
  Activity: Active
CAL-27 [17]
  Activity: Active
CAL-27 [18]
  Activity: Active
CAL-27 [19]
  Activity: Active
CAL-27 [20]
  Activity: Active
CAL-27 [21]
  Activity: Active
CAL-27 [22]
  Activity: Active
CAL-27 [23]
  Activity: 9.76%
CAL-27 [24]
  Activity: 76.12%
CAL-27 [25]
  Activity: 64%
CAL-27 [26]
  Activity: Active
CAL-27 [27]
  Activity: 158
[2]
  IC50 at 24 h: 41.4 µM
[28]
  Activity: 13.79%
CAL-27 [29]
  Activity: Active
CAL-27 [30]
  Activity: Active
CAL-27 [31]
  Activity: Active

## O=c1[nH]c(/C=C/c2c(F)c(F)c(F)c(F)c2F)nc2ccccc12
CAL-27 [1]
  IC50: 13.6 µM
[2]
  IC50 at 24 h: 17 µM

## N#Cc1ccc(/C=C/c2nc3ccccc3c(=O)[nH]2)cc1
CAL-27 [1]
  IC50: 17 µM
[2]
  IC50 at 24 h: 25 µM

## C/C(=C\c1ccccc1)c1nc2ccccc2c(=O)[nH]1
CAL-27 [1]
  IC50: 8.6 µM
[2]
  IC50 at 24 h: 15 µM

## COc1ccc(/C=C/c2nc3ccccc3c(=O)[nH]2)cc1
CAL-27 [1]
  IC50: 14 µM
[2]
  IC50 at 24 h: 13 µM

## O=c1[nH]c(/C=C/c2cccs2)nc2ccccc12
CAL-27 [1]
  IC50: 11.3 µM
[2]
  IC50 at 24 h: 16.2 µM

## CN(C)c1ccc(/C=C/c2nc(O)c3ccccc3n2)cc1
CAL-27 [1]
  IC50: 13.6 µM
[2]
  IC50 at 24 h: 31 µM

## O=c1[nH]c(/C=C/c2ccc(Cl)cc2)nc2ccccc12
CAL-27 [1]
  IC50: 15.6 µM
[2]
  IC50 at 24 h: 17 µM

## O=c1[nH]c(/C=C/c2cccc(F)c2)nc2ccccc12
CAL-27 [1]
  IC50: 16 µM
[2]
  IC50 at 24 h: 26 µM
